Results from US5563145A, “Rapamycin 42-oximes and hydroxylamines” (American Home Products Corporation, priority 1994, dated 1996).
Like-named read-outs stand apart in the source and are kept apart here.

Columns and labels:
[1] = system: cells from the thymus of normal BALB/c mice (T-cell proliferation); assay: comitogen-induced thymocyte proliferation procedure (LAF); assay type: cell-based; details: for IC50: read-out: LAF IC50; for LAF ratio (compared with rapamycin): ratio >1: inhibited thymocyte proliferation to a greater extent than rapamycin; for LAF percent inhibition of T-cell proliferation: at 0.1 μM
Protocol: (§1) Immunosuppressive activity for representative compounds of this invention was evaluated in an in vitro standard pharmacological test procedure to measure the inhibition of lymphocyte proliferation (LAF) and in two in vivo standard pharmacological test procedures. The pinch skin graft test procedure measures the immunosuppressive activity of the compound tested as well as the ability of the compound tested to inhibit or treat transplant rejection. The adjuvant arthritis standard pharmacological test procedure measures the ability of the compound tested to inhibit immune mediated inflammation. The adjuvant arthritis test procedure is a standard pharmacological test procedure for rheumatoid arthritis. The procedures for these standard pharmacological test procedures are provided below.
The comitogen-induced thymocyte proliferation procedure (LAF) was used as an in vitro measure of the immunosuppressive effects of representative compounds. Briefly, cells from the thymus of normal BALB/c mice are cultured for 72 hours with PHA and IL-1 and pulsed with tritiated thymidine during the last six hours. Cells are cultured with and without various concentrations of rapamycin, cyclosporin A, or test compound. Cells are harvested and incorporated radioactivity is determined. Inhibition of lymphoproliferation is assessed as percent change in counts per minute from non-drug treated controls. For each compound evaluated, rapamycin was also evaluated for the purpose of comparison. An IC50 was obtained for each test compound as well as for rapamycin. […] The results obtained are provided as an IC50 and as the percent inhibition of T-cell proliferation at 0.1 μM. […] A positive ratio indicates immunosuppressive activity. […] Calculation of the ratio is shown below. [formula]

[2] = system: pinch skin graft from male BALB/c donors transplanted to male C3H(H-2K) recipients; assay: in vivo pinch skin graft survival test procedure; design: species or system mice: male BALB/c donors, male C3 H(H-2K) recipients; details: 4 mg/kg, i.p.; untreated control grafts usually rejected within 6-7 days
Protocol: as §1
Representative compounds of this invention were also evaluated in an in vivo test procedure designed to determine the survival time of pinch skin graft from male BALB/c donors transplanted to male C3 H(H-2K) recipients. The method is adapted from Billingham R. E. and Medawar P. B., J. Exp. Biol. 28:385-402, (1951). Briefly, a pinch skin graft from the donor was grafted on the dorsum of the recipient as a allograft, and an isograft was used as control in the same region. The recipients were treated with either varying concentrations of test compounds intraperitoneally or orally. Rapamycin was used as a test control. Untreated recipients serve as rejection control. The graft was monitored daily and observations were recorded until the graft became dry and formed a blackened scab. This was considered as the rejection day. The mean graft survival time (number of days ±S.D.) of the drug treatment group was compared with the control group. Results are expressed as the mean survival time in days.

[3] = system: uninjected hind paw inflammation (immune mediated, Freund's Complete Adjuvant); assay: adjuvant arthritis standard pharmacological test procedure; assay type: in vivo, male inbred Wistar Lewis rats; details: 2 mg/kg, oral, 7 doses, day 16; more negative = more potent
Protocol: as §1
The adjuvant arthritis standard pharmacological test procedure measures the ability of test compounds to prevent immune mediated inflammation and inhibit or treat rheumatoid arthritis. The following briefly describes the test procedure used. A group of rats (male inbread Wistar Lewis rats) are pre-treated with the compound to be tested (1 h prior to antigen) and then injected with Freud's Complete Adjuvant (FCA) in the right hind paw to induce arthritis. The rats are then orally dosed on a Monday, Wednesday, Friday schedule from day 0-14 for a total of 7 doses. Both hind paws are measured on days 16, 23, and 30. The difference in paw volume (mL) from day 16 to day 0 is determined and a percent change from control is obtained. The left hind paw (uninjected paw) inflammation is caused by T-cell mediated inflammation and is recorded as % change from control. The right hind paw inflammation, on the other hand, is caused by nonspecific inflammation. Compounds were tested at a dose of 2 mg/kg.

[4] = system: experimental allergic encephalomyelitis model; details: a model for multiple sclerosis; cited from earlier work
adjuvant arthritis model = details: a model for rheumatoid arthritis; cited from earlier work
Candida albicans = details: in vitro and in vivo; cited from earlier work
[5] = system: formation of IgE-like antibodies; details: in vivo; cited from earlier work
[6] = BALB/c mouse thymocytes, PHA and IL-1, 72 hours, tritiated thymidine last six hours

Molecule	IC50 [1, 6] [nM]	LAF ratio (compared with rapamycin) [1]	Skin graft survival (mean graft survival time ± S.D.) [2] [days]	Percent change in adjuvant arthritis versus control (uninjected paw) [3] [%]	also measured
42-Deoxy-42-oxorapamycin 42-[O-(phenylmethyl)]-oxime [Example 8]	21.7	0.03			
42-Deoxy-42-oxorapamycin 42-[O-(prop-2-ynyl)]-oxime [Example 10]	8.13	0.08	8.0 ± 1.1		
42-Deoxy-42-oxorapamycin 42-[O-(pyridin-4-ylmethyl)]-oxime [Example 6]	1.8	0.31	8.0 ± 0.9		
CO[C@H]1C[C@@H]2CC[C@@H](C)[C@@](O)(O2)C(=O)C(=O)N2CCCC[C@H]2C(=O)O[C@H]([C@H](C)C[C@@H]2CCC(=NO)[C@H](OC)C2)CC(=O)[C@H](C)/C=C(\C)[C@@H](O)[C@@H](OC)C(=O)[C@H](C)C[C@H](C)/C=C/C=C/C=C/1C [Example 2, 42-Deoxo-42-(hydroxyimino)rapamycin]	3.88	0.85	10.8 ± 0.4		
CO[C@H]1C[C@@H]2CC[C@@H](C)[C@@](O)(O2)C(=O)C(=O)N2CCCC[C@H]2C(=O)O[C@H]([C@H](C)C[C@@H]2CCC(NO)[C@H](OC)C2)CC(=O)[C@H](C)/C=C(\C)[C@@H](O)[C@@H](OC)C(=O)[C@H](C)C[C@H](C)/C=C/C=C/C=C/1C (stereo partly shown) [Example 3, 42-Deoxo-42-(hydroxyamino)rapamycin]	5.6	0.18	9.6 ± 0.0	-84	
CO[C@H]1C[C@@H]2CC[C@@H](C)[C@@](O)(O2)C(=O)C(=O)N2CCCC[C@H]2C(=O)O[C@H]([C@H](C)C[C@@H]2CCC(=NOC(N)=O)[C@H](OC)C2)CC(=O)[C@H](C)/C=C(\C)[C@@H](O)[C@@H](OC)C(=O)[C@H](C)C[C@H](C)/C=C/C=C/C=C/1C [Example 4, 42-Deoxy-42-oxorapamycin-42-O-carbamoyloxime]	2	0.25	9.5 ± 1.1		
CO[C@H]1C[C@@H]2CC[C@@H](C)[C@@](O)(O2)C(=O)C(=O)N2CCCC[C@H]2C(=O)O[C@H]([C@H](C)C[C@@H]2CCC(=NOCc3ccccn3)[C@H](OC)C2)CC(=O)[C@H](C)/C=C(\C)[C@@H](O)[C@@H](OC)C(=O)[C@H](C)C[C@H](C)/C=C/C=C/C=C/1C [Example 5, 42-Deoxy-42-oxorapamycin 42-[O-(pyridin-2-ylmethyl)]-oxime]	1.5	0.40	7.8 ± 0.8	-53	
COC1CC2CCC(C)C(O)(O2)C(=O)C(=O)N2CCCCC2C(=O)OC(C(C)CC2CCC(=NOC(C)(C)C)C(OC)C2)CC(=O)C(C)C=C(C)C(O)C(OC)C(=O)C(C)CC(C)C=CC=CC=C1C (stereo not shown) [Example 7, 2-Deoxy-42-oxoxapamycin 42-[O-(tert-butyl)]-oxime]					LAF percent inhibition of T-cell proliferation [1]: 49%
C=CCON=C1CCC(CC(C)C2CC(=O)C(C)C=C(C)C(O)C(OC)C(=O)C(C)CC(C)C=CC=CC=C(C)C(OC)CC3CCC(C)C(O)(O3)C(=O)C(=O)N3CCCCC3C(=O)O2)CC1OC (stereo not shown) [Example 9, 42-Deoxy-42-oxorapamycin 42-(O-allyl)-oxime]					LAF percent inhibition of T-cell proliferation [1]: 43%
CO[C@H]1C[C@@H]2CC[C@@H](C)[C@@](O)(O2)C(=O)C(=O)N2CCCC[C@H]2C(=O)O[C@H]([C@H](C)C[C@@H]2CC[C@@H](O)[C@H](OC)C2)CC(=O)[C@H](C)/C=C(\C)[C@@H](O)[C@@H](OC)C(=O)[C@H](C)C[C@H](C)/C=C/C=C/C=C/1C [rapamycin]			11.67 ± 0.63	-70	IC50 ([1]; Mus musculus, T-cell): 0.5 to 3.3 nM; effect in experimental allergic encephalomyelitis model [4]: effective; effect in adjuvant arthritis model (adjuvant arthritis model): effective; antifungal activity, particularly against Candida albicans (Candida albicans): antifungal activity, particularly against Candida albicans; inhibition of formation of IgE-like antibodies [5]: effectively inhibited
